Key:
Conditions in all cases: 25 µM pACP, 24 h, maintenance medium 1% FBS, ratio of viability to vehicle (PBS), at least three technical repetitions
[1] = test system: MDA-MB-468; assay: MTT primary screening of anticancer activity, MDA-MB-468; format: cell-based
Procedure, shortened: (§1)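 Cultures grown to 60% confluence; complete medium replaced by 1% FBS maintenance medium; peptide added at 25 µM final; incubated 24 h; viability assessed by MTT.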

[2] = test system: B16; assay: MTT primary screening of anticancer activity, B16; format: cell-based, Mouse
Procedure, shortened: as §1

[3] = test system: MCF7; assay: MTT primary screening of anticancer activity, MCF7; format: cell-based
Procedure, shortened: as §1

[4] = test system: EFM192A; assay: MTT primary screening of anticancer activity, EFM192A; format: cell-based
Procedure, shortened: as §1

[5] = test system: MDA-MB-231; assay: MTT primary screening of anticancer activity, MDA-MB-231; format: cell-based
Procedure, shortened: as §1

[6] = test system: MDA-MB-436; assay: MTT primary screening of anticancer activity, MDA-MB-436; format: cell-based
Procedure, shortened: as §1

[7] = test system: Hela; assay: MTT primary screening of anticancer activity, Hela; format: cell-based, Human
Procedure, shortened: as §1

[8] = test system: BT474; assay: MTT primary screening of anticancer activity, BT474; format: cell-based
Procedure, shortened: as §1

[9] = test system: CT26; assay: MTT primary screening of anticancer activity, CT26; format: cell-based, Murine
Procedure, shortened: as §1

[10] = test system: LCC; assay: MTT primary screening of anticancer activity, LCC; format: cell-based
Procedure, shortened: as §1

[11] = test system: HT29; assay: MTT primary screening of anticancer activity, HT29; format: cell-based, Human
Procedure, shortened: as §1

[12] = test system: Caco2; assay: MTT primary screening of anticancer activity, Caco2; format: cell-based, Human
Procedure, shortened: as §1

[13] = test system: SK-BR-3; assay: MTT primary screening of anticancer activity, SK-BR-3; format: cell-based
Procedure, shortened: as §1

[14] = test system: HCT116; assay: MTT primary screening of anticancer activity, HCT116; format: cell-based, Human
Procedure, shortened: as §1

[15] = test system: T47D; assay: MTT primary screening of anticancer activity, T47D; format: cell-based
Procedure, shortened: as §1

[16] = test system: MDA-MB-453; assay: MTT primary screening of anticancer activity, MDA-MB-453; format: cell-based
Procedure, shortened: as §1

Row | Sequence | Survival rate of cancer cells in primary screening [1] | Survival rate of cancer cells in primary screening [2] | Survival rate of cancer cells in primary screening [3] | Survival rate of cancer cells in primary screening [4] | Survival rate of cancer cells in primary screening [5] | Survival rate of cancer cells in primary screening [6] | Survival rate of cancer cells in primary screening [7] | Survival rate of cancer cells in primary screening [8] | Survival rate of cancer cells in primary screening [9] | Survival rate of cancer cells in primary screening [10] | Survival rate of cancer cells in primary screening [11] | Survival rate of cancer cells in primary screening [12] | Survival rate of cancer cells in primary screening [13] | Survival rate of cancer cells in primary screening [14] | Survival rate of cancer cells in primary screening [15] | Survival rate of cancer cells in primary screening [16]
1 | VAHGLDLLDGVVAEGVAAKGDDNTIGLAKRLRHCWNPFCKRPTTH [pACP2160] | 0.70 | 0.80 | 1.00 | 1.00 | 1.00 | 1.00 | 1.00 | 1.00 | 1.00 | 1.00 | 1.00 | 1.00 | 1.00 | 1.00 | 0.79 | 1.00
2 | YCIFFLDKGFPGILADFLCLAGKRTIKLKALKQLIRQQVY [pACP2286] | 1.00 | 0.77 | 0.76 | 1.00 | 1.00 | 1.00 | 1.00 | 0.72 | 1.00 | 1.00 | 1.00 | 1.00 | 1.00 | 1.00 | 0.63 | 1.00
3 | YRKCDTAGGLSKLCVAEKDIKIIWKYGGR [pACP2334] | 1.00 | 0.76 | 1.00 | 1.00 | 1.00 | 1.00 | 1.00 | 1.00 | 1.00 | 1.00 | 1.00 | 1.00 | 1.00 | 1.00 | 0.78 | 1.00
4 | YSYGYVISSCKKAGGGYAIRYVALHYVQGTKEGGGRQ [pACP2344] | 1.00 | 0.76 | 1.00 | 1.00 | 1.00 | 1.00 | 1.00 | 0.68 | 1.00 | 1.00 | 1.00 | 1.00 | 1.00 | 1.00 | 1.00 | 1.00
